Measured values taken from US7491409B1, “Encapsulation of bioactive complexes in liposomes” (Transave, Inc., priority 1999, dated 2009).

System: pZeoLacZ plasmid DNA
Description: Each dialysis device was rotated on a 12 inch motorized wheel overnight (approximately 20 hours). The DNA-containing chamber was then withdrawn with repeated pipetting to mix the sample, and it was placed in a 250 μl volume cuvette. The absorbance at 400 nm was used to monitor turbidity against the buffer background.

With `NCCCNCCCCNCCCN` [spermine] the “total spermine concentration sufficient to condense the DNA” value (in the presence of the amount of N-C12-DOPE used) was 0.85 mM and the “spermine concentration sufficient to condense the plasmid DNA” value (initial 250 μl emulsion, without N-C12-DOPE) was “approximately 0.6 mM”.
